According to US11529350B2, “Tyrosine kinase non-receptor 1 (TNK1) inhibitors and uses thereof” (Sumitomo Pharma Oncology, Inc., priority 2019, dated 2022):

Legend:
TNK1 [1] = target: T1, TNK1 (Homo sapiens, UniProt Q13470); experiment: RBC HotSpot Kinase Assay; assay type: biochemical; parameters: purchased Reaction Biology Corp., Malvern, Pa; conditions: ATP 10 μM
T1 sequence (Q13470 1-666): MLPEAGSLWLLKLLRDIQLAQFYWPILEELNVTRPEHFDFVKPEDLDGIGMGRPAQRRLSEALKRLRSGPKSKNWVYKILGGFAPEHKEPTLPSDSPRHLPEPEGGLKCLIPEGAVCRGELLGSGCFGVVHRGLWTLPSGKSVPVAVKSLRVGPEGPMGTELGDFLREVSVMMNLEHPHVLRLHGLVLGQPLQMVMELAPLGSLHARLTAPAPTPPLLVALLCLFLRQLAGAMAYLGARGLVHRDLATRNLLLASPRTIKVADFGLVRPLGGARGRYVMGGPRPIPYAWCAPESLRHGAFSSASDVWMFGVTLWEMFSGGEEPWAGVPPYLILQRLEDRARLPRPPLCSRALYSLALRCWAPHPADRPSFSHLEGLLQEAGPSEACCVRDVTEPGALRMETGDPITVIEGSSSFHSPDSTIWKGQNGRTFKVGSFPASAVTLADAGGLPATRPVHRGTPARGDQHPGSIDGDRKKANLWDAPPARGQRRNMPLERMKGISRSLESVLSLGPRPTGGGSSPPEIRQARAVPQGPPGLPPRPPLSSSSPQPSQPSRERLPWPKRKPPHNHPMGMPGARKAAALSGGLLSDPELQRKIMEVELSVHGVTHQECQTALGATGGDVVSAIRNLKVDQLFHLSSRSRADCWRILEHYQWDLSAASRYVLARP
Protocol: The RBC HotSpot Kinase assay (Reaction Biology Corp., Malvern, Pa.) was used to evaluate the ability of test compounds to modulate (e.g., inhibit) the enzymatic activity of human TNK1 (UniProt Accession No. Q13470) in the following reaction:
Reagent: Base Reaction buffer; 20 mM Hepes (pH 7.5), 10 mM MgCl2, 1 mM EGTA, 0.02% Brij35, 0.02 mg/ml BSA, 0.1 mM Na3VO4, 2 mM DTT, 1% DMSO. Required cofactors were added individually to each kinase reaction.
Compound handling: Test compounds were dissolved in 100% DMSO to specific concentration. The serial dilution was conducted by Integra Viaflo Assist in DMSO.
1. Prepared substrate (peptide substrate, poly[Glu:Tyr] (4:1), 0.2 mg/ml; ATP 10 μM) in freshly prepared Reaction Buffer;
2. Delivered any required cofactors to the substrate solution;
3. Delivered kinase (TNK1) into the substrate solution and gently mixed;
4. Delivered compounds in 100% DMSO into the kinase reaction mixture by Acoustic technology (Echo550; nanoliter range), incubated for 20 minutes at room temperature;
5. Delivered ^33P-ATP (specific activity 10 μCi/μl) into the reaction mixture to initiate the reaction;
6. Incubated for 2 hours at room temperature;
7. Detected radioactivity by filter-binding method;
8. Kinase activity data were expressed as the percent remaining kinase activity in test samples compared to vehicle (dimethyl sulfoxide) reactions. IC50 values and curve fits were obtained using Prism (GraphPad Software).

TNK1 [2] = target: T1, TNK1; experiment: TNK1 NanoBRET target engagement assay (HEK293); assay type: cell-based; parameters: host or cells: HEK293; conditions: HEK293 cells, 2 hours; read-out: NanoBRET TE Assay (HEK293) IC50
Text: The NanoBRET target engagement (TE) assay (Promega, Madison, Wis.) enables the interrogation of the displacement of a tracer compound in the active site of a recombinant kinase by a test compound in the intracellular setting. The assay enables simultaneous testing of permeability, solubility, and kinase inhibition, and tests the specific interaction of test agents with a kinase of interest, here, TNK1. The assay is based on the principle of bioluminescence resonance energy transfer (BRET). In the assay, a plasmid-encoded, luciferase-tagged form of TNK1 is transfected into cells. A tracer compound is tagged with a fluorophore that fluoresces when bound to the TNK1 protein. Readout is luminescence and fluorescence. Test compounds show activity by displacing the tracer, thus disrupting BRET.
Methods: The TNK1 NanoBRET TE assays were performed according to the manufacturer's protocol. Briefly, Nanoluc-TNK1 Fusion Vector (Promega, Madison, Wis., Cat. No. NV2181) was transfected into HEK293 cells in bulk (8×10^6 cells in a T175 flask). Up to 30 hours post-transfection, cells were harvested by trypsinization, resuspended at a concentration of 2×10^5 cells/mL, and seeded in 96-well plates at 85 μL/well. A test compound and the K5 tracer were added to each well, and the cells were incubated for 2 hours. Luminescence ([…]) and fluorescence ([…]) were measured to determine a BRET ratio. IC50 values were determined from the BRET ratios using the Graphpad Prism software (GraphPad Software, San Diego, Calif.).

[3] = system: phospho-STAT5 in L540 cells; experiment: In vitro pSTAT5 assay (ELISA) in L540 cells; assay type: cell-based; conditions: Homo sapiens, L-540, 24 hours, normalized to cell viability, read-out: P-STAT5 Assay IC50
Protocol: The L540 cell line harbors a truncating mutation in the C-terminal regulatory region of the protein. As a consequence, TNK1 in L540 cells is constitutively active in phosphorylating key proteins, including STAT5. In TNK1 wild-type conditions (e.g., K562 CML cells), STAT5 phosphorylation is achieved in a TNK1-independent fashion. As such, reductions in phospho-STAT5 signal specific to the L540 cells are a good readout of TNK1 inhibitor function.
Methods: The in vitro pSTAT5 assay was performed with STAT5 AB (pY964/699) SimpleStep ELISA Kit (Abcam No. ab176656) according to the manufacturer's protocol. Briefly, L540 cells were grown in RPMI1640 media under standard culture conditions (10% FBS with penicillin/streptomycin). To assess test compound effects, cells were plated in 96 well plates (250,000 cells/mL) and allowed to grow overnight. Cells were subsequently treated with varying concentrations of test compound for 24 hours, before being harvested and interrogated with the STAT5 AB (pY964/699) SimpleStep ELISA Kit according to the manufacturer's protocol. Phospho-STAT5 signal was normalized to cell viability, as assessed by the CellTiter-Glo assay (Promega, Cat. No. G7570) on treated cells. TNK1 inhibitor IC50s were determined using Graphpad Prism software on normalized phospho-STAT5 measurements.

A549 cells = experiment: Combination with bortezomib, A549 cell confluency (Incucyte); assay type: cell-based; conditions: 1 nM alone, two independent experiments
Protocol: A549 cells were seeded in log phase (e.g., at 40-60% confluency) in a well plate. Drug treatments were: no drug treatment, DMSO, bortezomib at 50 nM, 10 nM, 5 nM, 2 nM or 1 nM, Example No. 13 at 10 nM, and bortezomib 50 nM, 10 nM, 5 nM, 2 nM or 1 nM combined with Example No. 13 at 10 nM. The DMSO concentrations were kept constant (including DMSO control) to control for any confounding DMSO toxicity.
Drug addition protocol: On day 1, cells were seeded at 60,000 cells/well, and incubated for 24 hours to allow adherence. On day 2, media was aspirated and replaced with 500 μl of the drug media preparations described below in correlating wells. The plates were placed in Incucyte for 7-14 days, and cell confluency was measured every 2 hours. […]

SMILES	IC50 (TNK1 [1])	IC50 (TNK1 [2])	IC50 [3]	cell growth inhibition, alone (A549 cells)
COc1cc(N2CCN(C)CC2)c(C)cc1Nc1ncc(I)c(Nc2cccnc2N(C)C)n1 [compound 11, N^4-(2-(dimethylamino)pyridin-3-yl)-5-iodo-N^2-(2-methoxy-5-methyl-4-(4-methylpiperazin-1-yl)phenyl)pyrimidine-2,4-diamine]	< 5 nM	150 to 1000 nM	5 to 50 nM	
CN1CCN(c2c(Cl)cc(Nc3ncc(Cl)c(Nc4cccnc4N(C)C)n3)c3ccccc23)CC1 [compound 7, 5-chloro-N^2-(3-chloro-4-(4-methylpiperazin-1-yl)naphthalen-1-yl)-N^4-(2-(dimethylamino)pyridin-3-yl)pyrimidine-2,4-diamine]	< 5 nM	> 1000 nM	5 to 50 nM	
COc1cc(N2CCN(C)CC2)c(C)cc1Nc1ncc(C(C)=O)c(Nc2cccnc2N(C)C)n1 [Example No. 12, 1-(4-((2-(dimethylamino)pyridin-3-yl)amino)-2-((2-methoxy-5-methyl-4-(4-methylpiperazin-1-yl)phenyl)amino)pyrimidin-5-yl)ethan-1-one]	15 to 50 nM	> 1000 nM	> 50 nM	
COc1cc(N2CCN(C)CC2)ccc1Nc1ncc(Cl)c(Nc2cccnc2N(C)C)n1 [Example No. 16, 5-chloro-N4-(2-(dimethylamino)pyridin-3-yl)-N2-(2-methoxy-4-(4-methylpiperazin-1-yl)phenyl)pyrimidine-2,4-diamine]	< 5 nM	150 to 1000 nM	5 to 50 nM	
COc1cc(N2CCN(C)CC2)c(C)cc1Nc1ncc(C#N)c(Nc2cccnc2N(C)C)n1 [Example No. 20]	5 to 15 nM	150 to 1000 nM		
CC(C)C[C@H](NC(=O)[C@H](Cc1ccccc1)NC(=O)c1cnccn1)B(O)O [Bortezomib, bortezomib, reference compound]				no inhibition of cell growth
CN1CCN(c2ccc(Nc3ncc(Cl)c(Nc4cccnc4N(C)C)n3)c3ccccc23)CC1 [Example No. 17, 5-chloro-N4-(2-(dimethylamino)pyridin-3-yl)-N2-(4-(4-methylpiperazin-1-yl)naphthalen-1-yl)pyrimidine-2,4-diamine]	5 to 15 nM	> 1000 nM	> 50 nM	

The next lines start with results.

IC50 (TNK1 [1])	IC50 (TNK1 [2])	SMILES	IC50 [3]	cell growth inhibition, alone (A549 cells)
< 5 nM	150 to 1000 nM	COc1cc(N2CCN(C)CC2)c(C)cc1Nc1ncc(Cl)c(Nc2cccnc2N2CCCC2)n1 [compound 8, 5-chloro-N^2-(2-methoxy-5-methyl-4-(4-methylpiperazin-1-yl)phenyl)-N^4-(2-(pyrrolidin-1-yl)pyridin-3-yl)pyrimidine-2,4-diamine]	5 to 50 nM	
15 to 50 nM	> 1000 nM	COc1cc(N2CCN(C)CC2)c(C)cc1Nc1ncc(Cl)c(Nc2cccnc2N2CCCCC2)n1 [Example No. 14, 5-chloro-N2-(2-methoxy-5-methyl-4-(4-methylpiperazin-1-yl)phenyl)-N4-(2-(piperidin-1-yl)pyridin-3-yl)pyrimidine-2,4-diamine]	> 50 nM	
5 to 15 nM	150 to 1000 nM	COc1cc(N2CCN(C)CC2)c(Cl)cc1Nc1ncc(Cl)c(Nc2cccnc2N2CCCCC2=O)n1 [Example No. 19, 1-(3-((5-chloro-2-((5-chloro-2-methoxy-4-(4-methylpiperazin-1-yl)phenyl)amino)pyrimidin-4-yl)amino)pyridin-2-yl)piperidin-2-one]	5 to 50 nM	
< 5 nM	150 to 1000 nM	COc1cc(N2CCN(C)CC2)c(C)cc1Nc1ncc(Cl)c(Nc2cccnc2N(C)C)n1 [compound 6, 5-chloro-N^4-(2-(dimethylamino)pyridin-3-yl)-N^2-(2-methoxy-5-methyl-4-(4-methylpiperazin-1-yl)phenyl)pyrimidine-2,4-diamine]	5 to 50 nM	
15 to 50 nM	150 to 1000 nM	COc1cc(N2CCN(C)CC2)c(C)cc1Nc1ncc(Cl)c(Nc2cccnc2N2CCCCC2=O)n1 [Example No. 15, 1-(3-((5-chloro-2-((2-methoxy-5-methyl-4-(4-methylpiperazin-1-yl)phenyl)amino)pyrimidin-4-yl)amino)pyridin-2-yl)piperidin-2-one]	> 50 nM	
